PMC12811658, “Design, Synthesis, and Structural Evolution of Pseudo‐Natural Product IDO1 Inhibitors and Degraders” (Angewandte Chemie (International Ed. in English), 2025)

What was measured:
[1] = molecular target: IDO1 protein levels in BxPC3 cells (Homo sapiens, UniProt P14902); experiment: IDO1 immunoblotting (degradation); type: cell-based; set-up: endogenous in cells; host or cells: BxPC3 (DSMZ), IFN-γ stimulated; conditions: 24 h incubation, mean ± SD
[2] = tested on: SKOV-3 tumor; experiment: SKOV-3 tumor-bearing mouse model; type: in vivo, NSG immunodeficient mice; conditions: 30 mg kg−1 IP twice daily
Protocol: Incubation at 37 °C for 3 h. Representative data for n = 3. c) Time‐course of heme displacement from IDO1 detected by the absorbance at the Soret peak (404 nm) as a function of time. […] All curves were fit using a one‐site model with N = 1 and defined IDO1 concentration. Left plots show baseline corrected data, while right plots show integrated binding isotherms versus iDegs/IDO1 ratio. IDO1 protein (125 µM) was titrated into the stirred sample cell containing iDegs (25 µM, except for iDeg‐8 at 50 µM). Representative data for n = 3, except for iDeg‐9 (n = 2). g)–i) In vivo activity of iDeg‐6. NSG immunodeficient mice were injected with SKOV‐3 cells. Mice were treated with 18 intraperitoneal injections of iDeg‐6 (30 mg kg^−1) or vehicle. The pharmacological treatment was twice daily. Tumor volume was determined weekly by digital caliper. g) SKOV‐3 tumor growth curves in iDeg‐6‐treated mice (n = 12, green lines) or vehicle‐treated mice (n = 13, gray lines). Statistical analysis was performed by two‐way ANOVA: ****p < 0.001. h) Body weight changes during treatment window (mean values ± range). i) Survival data are shown by Kaplan‐Meier survival analysis. Mantel–Haenszel statistical analysis: p < 0.0001).
The limited clinical efficacy of IDO1 inhibitors is likely due in part to its non‐enzymatic functions that are not targeted by catalytic inhibition.^[ [32], [33], [34], [35], [36], [37], [38] ^] […] SKOV‐3 cells were subsequently engrafted into NSG immunodeficient mice to establish a SKOV‐3 tumor‐bearing model (Figure S11a). Mice were treated with iDeg‐6 at a dose of 30 mg kg^−1, administered twice daily for 18 days.
NSG female mice (NOD.Cg-PrkdcSCIDIl2rgtm1Wjl/SzJ) were purchased from Charles River (Calco, Italia) with 10 weeks age. […] Tumor volume was determined weekly by digital caliper from 10 days after tumor challenging to the endpoint of the experiment (day 80). […] All animal experiments were under the Amsterdam Protocol on animal protection and welfare: mice were monitored daily and euthanized when displaying excessive discomfort.

[3] = Pharmacokinetics of iDeg-6; type: in vivo, male C57Bl/6 mice; conditions: male, C57Bl/6, mouse, plasma
Protocol: In vivo pharmacology characterization was carried out at Pharmacelsus GmbH, Saarbrücken, Germany, using male C57Bl/6 mice. Food and water was provided ad libitum before and during each study. All experimental procedures were approved by and conducted in accordance with the regulations of the local Animal Welfare Authorities. Plasma samples were analysed by liquid chromatography tandem-mass spectrometry using a generic method. Pharmacokinetic parameters were calculated by non-compartmental analysis. […] Up to 120 mg/kg PO and 30 mg/kg IP no clinical signs were observed. […] Due to the larger plasma exposure of iDeg-6 the IP route was selected for efficacy studies.

[4] = tested on: IDO1 mRNA levels in SKOV-3 cells; experiment: RT-qPCR of IDO1 expression; type: cell-based; conditions: 24 h
Protocol: a, IDO1 mRNA levels in SKOV-3 cells.
To assess IDO1 gene expression in the SKOV3 cell line, SKOV3 cells were seeded into 24-well plates. After 24 h, the cells were treated with the indicated concentrations of compounds, followed by an additional 24 h incubation.

[5] = tested on: Kyn levels in BxPC3 cells (kynurenine generated by IDO1); experiment: Cellular Kyn assay (automated Kyn screening assay); type: cell-based; conditions: Homo sapiens, BXPC-3, 48 h, IFN-γ, L-Trp and compounds 48 h, mean ± SD, read-out: IC50 (Kyn assay), reduction of kynurenine levels

Chain of IDO1 protein levels in BxPC3 cells (P14902 whole entry): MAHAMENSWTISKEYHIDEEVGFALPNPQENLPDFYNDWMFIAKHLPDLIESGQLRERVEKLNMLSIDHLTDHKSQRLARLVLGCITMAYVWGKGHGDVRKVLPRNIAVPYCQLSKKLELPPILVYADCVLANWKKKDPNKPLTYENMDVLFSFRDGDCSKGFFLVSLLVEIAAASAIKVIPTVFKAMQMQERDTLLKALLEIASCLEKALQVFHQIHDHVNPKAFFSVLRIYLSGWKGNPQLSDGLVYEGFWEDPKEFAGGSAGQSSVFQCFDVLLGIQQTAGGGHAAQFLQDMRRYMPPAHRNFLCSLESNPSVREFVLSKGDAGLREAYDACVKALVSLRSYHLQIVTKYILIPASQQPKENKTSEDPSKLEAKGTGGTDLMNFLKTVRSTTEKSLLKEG

C#Cc1ccc(NC(=O)OC[C@]23CN(S(=O)(=O)c4ccc(C(C)(C)C)cc4C)C[C@H]2C[C@H]2C[C@@H]3C2(C)C)cc1 [98 (iDeg-6), ((3aS,4R,6R,7aS)-2-((4-(tert-butyl)-2-methylphenyl)sulfonyl)-5,5-dimethyloctahydro-3aH-4,6-methanoisoindol-3a-yl)methyl (4-ethynylphenyl)carbamate]
Max. degradation (%) ([1]; 10 nM): 61 ± 12 (5) %
Max. degradation (%) ([1]; 100 nM): 74 ± 13 (5) %
body weight (in words) [2]: no significantly negative impact on body weight
overall survival (in words) ([2]; Kaplan-Meier): significantly improved the overall survival time
tumor growth (in words) ([2]; p < 0.001 vs control): significant inhibition of tumor growth
AUC(0-inf) ([3]; 1 mg/kg IV): 414 ng·h/mL
C0 ([3]; 1 mg/kg IV): 1120 ng/mL
clearance ([3]; 1 mg/kg IV): 40.3 mL/min/kg
half-life ([3]; 1 mg/kg IV): 1.1 h
Vd ([3]; 1 mg/kg IV, read-out: Vz): 3.82 L/kg
AUC(0-inf) ([3]; 30 mg/kg IP): 7040 ng·h/mL
Cmax ([3]; 30 mg/kg IP): 872 ng/mL
bioavailability ([3]; 30 mg/kg IP): 57%
half-life ([3]; 30 mg/kg IP): 4 h
IDO1 transcription (in words) [4]: without affecting its transcription
IC50 [5]: 0.014 ± 0.003 µM
